Test results as given in US4552898A, “[3.2.0]Bicycloheptanone oxime ethers with valuable therapeutic properties” (Syntex (U.S.A.) Inc., priority 1983, dated 1985).

Tested on: human platelet-rich plasma
Test: In vitro human platelet aggregation inhibition (turbidimetric)
Assay type: cell-based
Conditions: ADP inducer
Description: Biological activity of the claimed compounds is tested by in vitro human platelet aggregation assay. This assay determines the effectiveness of the compounds in inhibiting the platelet aggregation
Immediately thereafter, the platelets start to secrete large quantities of adenosine diphosphate (ADP) which, in turn activates the other platelets that adhere to the original platelets and eventually form the plug which closes the rupture of the vascular wall. In medical parlance the first process is called collagen-induced primary platelet aggregation, the second process is called ADP-mediated secondary platelet aggregation. This situation can be artificially simulated by natural platelet aggregation inducers such as collagen, ADP, or arachidonic acid to the human platelet-rich plasma.
The blood samples used for the assay are collected into sodium citrate anticoagulant of a final concentration of 0.38%. The platelet-rich plasma is collected after centrifugation at 200 rpm at room temperature. To determine whether the platelet-rich plasma needs dilution to obtain optimal optical density, citrated plasma containing […] platelets per milliliter is pipetted into a Spinco transparent plastic centrifuge tube. The tube is inserted into a Unicam SP 400 absorptiometer and the light at the wave-length of 600 mμ is passed through the tube. The dark current is set at infinity and the optical density of distilled water at zero. The plasma is stirred by a magnetic stirrer. If necessary, platelet-rich plasma is diluted with 0.154M sodium chloride to obtain appropriate optical density
Platelet-rich plasma of appropriate optical density is mixed with appropriate concentration of tested compounds to make up 1 ml of mixture of platelet-rich plasma and tested compound. The concentration of each tested compound varied from 1.0×10^-5 moles to 1.0×10^-9 moles. Each concentration is tested individually by number of repetitions varying from 1 to 6. Each sample mixture consisting of platelet-rich plasma and tested compound is incubated for about 3 to 5 minutes under constant stirring at 500 rpm at 30° C. Thereafter, a predetermined optimal concentration of platelet aggregation inducer is added to each sample mixture. Inducers which are used for testing may be chosen from: […]
Adenosine Diphosphate (ADP) is purchased from Sigma Chemical Company. ADP inducer solution of final concentration of 5 μmol is prepared by dissolving 214 mg of ADP in 1 ml of tris buffer (0.01M at pH 9 at 22° C.). […]
A tube with the mixture of platelet-rich plasma, tested compound and ADP inducer (5 μmol/10 μl) is inserted into the absorptiometer and optical density changes are recorded on chart. Aggregation of the platelets is determined from maximal optical density change. Maximal optical density of a mixture of platelet-rich plasma with inducer, but without the tested compounds, is taken as 100% of platelet aggregation. The maximal optical density of the sample mixture of platelet-rich plasma, ADP inducer and appropriate amount of tested compound is compared to the maximal optical density of the sample without tested compound and inhibitory effectiveness of tested compounds is calculated. For each sample the percentage of the platelet aggregation is calculated and if more than one measurement with the same concentration of the tested compounds are done, the final value is expressed as an average of all measurements with ±S.E. The inhibitory concentration is the effective concentration of tested compound which is able to prevent 50% of the platelet aggregation, where, without the tested compound, the platelet aggregation would have been 100%. PGE1 has an IC50 of 2-8×10^-8 M.

First: CCCCCC(O)C#CC1CC2C(=NOCCC(=O)O)CC2C1O (stereo not drawn) [Compound 23, N--[2-endo-hydroxy-3-exo-(3-hydroxyoct-1-ynyl)bicyclo[3.2.0]hept-6-ylidene] -3-aminooxypropionic acid]
Second: CCCCCC(O)C#CC1CC2C(=NOCC(=O)O)CC2C1O (stereo not drawn) [Compound 1, N--[2-endo-hydroxy-3-exo-(3αS--hydroxyoct-1-ynyl)bicyclo[3.2.0]hept-6-ylidene]aminooxyacetic acid]
The IC50 of the first is 9.4-fold higher: 175 nM for the first, 18.6 nM for the second.

Going from `O=C(O)CCON=C1CC2C1CC(/C=C/C(O)C1CCCC1)C2O` (stereo not drawn) [Compound 16, N--[2-endo-hydroxy-3-exo-(3α-hydroxy-3-cyclopentylprop-1-trans-enyl)bicyclo[3.2.0]hept-6-ylidene]-3-aminooxypropionic acid] to `O=C(O)CCON=C1CC2C1CC(/C=C/C(O)C1CCCCC1)C2O` (stereo not drawn) [Compound 19, N--[2-endo-hydroxy-3-exo-(3α-hydroxy-3-cyclohexylprop-1-trans-enyl)bicyclo[3.2.0]hept-6-ylidene]-3-aminooxypropionic acid], the IC50 rises from 10.5 nM to 81 nM (7.7-fold). The first is the more potent here.

Going from `CCCCCC(O)C#CC1CC2C(=NOCC(=O)O)CC2C1O` (stereo not drawn) [Compound 11, N--[2-endo-hydroxy-3-exo-(3αβS--hydroxyoct-1-ynyl)bicyclo[3.2.0]hept-6-ylidene]aminooxyacetic acid] to `CCCCCC(O)C#CC1CC2C(=NOCCC(=O)O)CC2C1O` (stereo not drawn) [Compound 12, N--[2-endo-hydroxy-3-exo-(3αS--hydroxyoct-1-ynyl)bicyclo[3.2.0]hept-6-ylidene]-3-aminooxypropionic acid], the IC50 falls from 70 nM to 31 nM (2.3-fold). The second is the more potent here.

Compared with `O=C(O)CON=C1CC2C1CC(/C=C/C(O)C1CCCC1)C2O` (stereo not drawn) [Compound 5], `CCCCCC(O)C#CC1CC2C(=NOCCC(=O)O)CC2C1O` (stereo not drawn) [Compound 24, N--[2-endo-hydroxy-3-exo-(3αβS--hydroxyoct-1-ynyl)bicyclo[3.2.0]hept-6-ylidene]-3-aminooxypropionic acid] is 3.8-fold higher in IC50: 11.2 nM for the first, 43 nM for the second. The first is the more potent here.

Same assay, conditions: Homo sapiens, Platelet, ADP inducer

Compared with `CCCCCCCC(O)CCC1CC2C(=NOCCC(=O)O)CC2C1O` (stereo not drawn) [Compound 22, N--[2-endo-hydroxy-3-exo-(3-hydroxydec-1-yl)bicyclo[3.2.0]hept-6-ylidene]-3-aminooxypropionic acid], `CCCCCC(O)CCC1CC2C(=NOCCC(=O)O)CC2C1O` (stereo not drawn) [Compound 14, N--[2-endo-hydroxy-3-exo-(3αβS--hydroxyoct-1-yl)bicyclo[3.2.0]hept-6-ylidene]-3-aminooxypropionic acid] is 1.7-fold higher in IC50: 1300 nM for the first, 2200 nM for the second.

Compared with `CCCCCC(O)C#CC1CC2C(=NOCCCC(=O)O)CC2C1O` (stereo not drawn) [Compound 25, N--[2-endo-hydroxy-3-exo-(3αβS--hydroxyoct-1-ynyl)bicyclo[3.2.0]hept-6-ylidene]-4-aminooxybutyric acid], `CCCCCCCC(O)C#CC1CC2C(=NOCCC(=O)O)CC2C1O` (stereo not drawn) [Compound 21, N--[2-endo-hydroxy-3-exo-(3-hydroxydec-1-ynyl)bicyclo[3.2.0]hept-6-ylidene]-3-aminooxypropionic acid] is 3.6-fold lower in IC50: 420 nM for the first, 117 nM for the second. The second is the more potent here.

First: O=C(O)CCON=C1CC2C1CC(CCC(O)C1CCCCC1)C2O (stereo not drawn) [Compound 20, N--[2-endo-hydroxy-3-exo-(3-hydroxy-3-cyclohexylprop-1-yl)bicyclo[3.2.0]hept-6-ylidene]-3-aminooxypropionic acid]
Second: O=C(O)CCON=C1CC2C1CC(CCC(O)C1CCCC1)C2O (stereo not drawn) [Compound 17, N--[2-endo-hydroxy-3-exo-(3-hydroxy-3-cyclopentylprop-1-yl)bicyclo[3.2.0]hept-6-ylidene]-3-aminooxypropionic acid]
The IC50 of the first is 2.3-fold higher: 2350 nM for the first, 1020 nM for the second.

Going from `CCCCCC(O)C#CC1C(O)CC2C(=NOCCCC(=O)O)CC21` (stereo not drawn) [Compound 27, N--[3-endo-hydroxy-2-exo-(3αβS--hydroxyoct-1-ynyl)bicyclo[3.2.0]hept-6-ylidene]-4-aminooxybutyric acid] to `CCCCCC(O)C#CC1C(O)CC2C(=NOCCC(=O)O)CC21` (stereo not drawn) [Compound 26, N--[3-endo-hydroxy-2-exo-(3αβS--hydroxyoct-1-ynyl)bicyclo[3.2.0]hept-6-ylidene]-3-aminooxypropionic acid], the IC50 rises from 1100 nM to 21000 nM (19-fold). The first is the more potent here.

Compared with `CCCCCCCC(O)C#CC1CC2C(=NOCC(=O)O)CC2C1O` (stereo not drawn) [Compound 9, N--[2-endo-hydroxy-3-exo-(3-hydroxydec-1-ynyl)bicyclo[3.2.0]hept-6-ylidene]aminooxyacetic acid], `CCCCCC(O)CCC1CC2C(=NOCC(=O)O)CC2C1O` (stereo not drawn) [Compound 3, N--[2-endo-hydroxy-3-exo-(3αβS--hydroxyoct-1-yl)bicyclo[3.2.0]hept-6-ylidene]aminooxyacetic acid] is 44-fold higher in IC50: 32 nM for the first, 1400 nM for the second.

Going from `O=C(O)CON=C1CC2C1CC(C#CC(O)C1CCCCC1)C2O` (stereo not drawn) [Compound 7, N--[2-endo-hydroxy-3-exo-(3-hydroxy-3-cyclohexylprop-1-ynyl)bicyclo[3.2.0]hept-6-ylidene]aminooxyacetic acid] to `O=C(O)CON=C1CC2C1CC(C#CC(O)C1CCCC1)C2O` (stereo not drawn) [Compound 4, N--[2-endo-hydroxy-3-exo-(3-hydroxy-3-cyclopentylprop-1-ynyl)bicyclo[3.2.0]hept-6-ylidene]aminooxyacetic acid], the IC50 falls from 24 nM to 12.5 nM (1.9-fold). The second is the more potent here.

Going from `O=C(O)CON=C1CC2C1CC(CCC(O)C1CCCC1)C2O` (stereo not drawn) [Compound 6, N--[2-endo-hydroxy-3-exo-(3-hydroxy-3-cyclopentylprop-1-yl)bicyclo[3.2.0]hept-6-ylidene]aminooxyacetic acid] to `O=C(O)CON=C1CC2C1CC(CCC(O)C1CCCCC1)C2O` (stereo not drawn) [Compound 8, N--[2-endo-hydroxy-3-exo-(3-hydroxy-3-cyclohexylprop-1-yl)bicyclo[3.2.0]hept-6-ylidene]aminooxyacetic acid], the IC50 falls from 1000 nM to 88 nM (11-fold).

First: CCCCCC(O)C=CC1CC2C(=NOCCC(=O)O)CC2C1O (stereo not drawn) [Compound 13, N--[2-endo-hydroxy-3-exo-(3αS--hydroxyoct-1-trans-enyl)bicyclo[3.2.0]hept-6-ylidene]-3-aminooxypropionic acid]
Second: CCCCCC(O)C=CC1CC2C(=NOCC(=O)O)CC2C1O (stereo not drawn) [Compound 2, N--[2-endo-hydroxy-3-exo-(3αS--hydroxyoct-1-trans-enyl)bicyclo[3.2.0]hept-6-ylidene]aminooxyacetic acid]
The IC50 of the first is 13-fold lower: 6.9 nM for the first, 89 nM for the second. The first is the more potent here.

Going from `O=C(O)CCON=C1CC2C1CC(C#CC(O)C1CCCCC1)C2O` (stereo not drawn) [Compound 18, N--[2-endo-hydroxy-3-exo-(3-hydroxy-3-cyclohexylprop-1-ynyl)bicyclo[3.2.0]hept-6-ylidene]-3-aminooxypropionic acid] to `O=C(O)CCON=C1CC2C1CC(C#CC(O)C1CCCC1)C2O` (stereo not drawn) [Compound 15, N--[2-endo-hydroxy-3-exo-(3-hydroxy-3-cyclopentylprop-1-ynyl)bicyclo[3.2.0]hept-6-ylidene]-3-aminooxypropionic acid], the IC50 rises from 8.4 nM to 31 nM (3.7-fold).

Tested on: not listed separately
Test: Acute toxicity in mice, single intraperitoneal administration
Set-up: species or system Male Sim: (SW)f BR mice
Conditions: mouse, in vivo, ip
Description: Male Sim: (SW)f BR mice weighing approximately 25 g were randomly assigned to treatment groups of 6 animals, caged together, and were given food and water ad libitum.
The test material was prepared as an aqueous solution or suspension in CMC vehicle (sodium carboxymethyl cellulose, 0.5 g; sodium chloride, 0.9 g; benzyl alcohol, 0.9 ml; Tween 80, 0.4 ml; and water to 100 ml). The test material and the control vehicle were administered once by the indicated route at a dose level of 10 ml per kg body weight.
Following administration of the test material on day 1, animals were observed daily and any deaths were recorded.

For `CCCCCC(O)C#CC1CC2C(=NOCCC(=O)O)CC2C1O` (stereo not drawn) [Test Material], the LD50 was over 120 mg/kg.
